Calls of active or inactive are those of the source. No cut-off for these calls is given here.
Columns and labels:
Liver [1] = test: Biodistribution in iv dosed ddY mouse liver measured per gram of tissue after 60 mins by automatic gamma counting; assay type: ADME, organism-based; settings: in vivo, 1 h
Plasma = test: Metabolic stability in mouse plasma at 11 kBq after 1 hr at 37 degC by HPLC analysis; assay type: ADME, cell-free
Intestine [2] = test: Biodistribution in iv dosed ddY mouse intestine measured per gram of tissue after 2 mins by automatic gamma counting; assay type: ADME, organism-based; settings: in vivo
Intestine [3] = test: Biodistribution in iv dosed ddY mouse intestine measured per gram of tissue after 10 mins by automatic gamma counting; assay type: ADME, organism-based; settings: in vivo
Pancreas [4] = test: Biodistribution in iv dosed ddY mouse pancreas measured per gram of tissue after 10 mins by automatic gamma counting; assay type: ADME, organism-based; settings: in vivo
Intestine [5] = test: Biodistribution in iv dosed ddY mouse intestine measured per gram of tissue after 60 mins by automatic gamma counting; assay type: ADME, organism-based; settings: in vivo, 1 h
Brain [6] = test: Biodistribution in iv dosed ddY mouse brain measured per gram of tissue after 60 mins by automatic gamma counting; assay type: ADME, organism-based; settings: in vivo, 1 h
Spleen [7] = test: Biodistribution in iv dosed ddY mouse spleen measured per gram of tissue after 10 mins by automatic gamma counting; assay type: ADME, organism-based; settings: in vivo
Stomach [8] = test: Biodistribution in iv dosed ddY mouse stomach measured per organ after 30 mins by automatic gamma counting; assay type: ADME, organism-based; settings: in vivo, 0.5 h
Heart [9] = test: Biodistribution in iv dosed ddY mouse heart measured per gram of tissue after 2 mins by automatic gamma counting; assay type: ADME, organism-based; settings: in vivo
Spleen [10] = test: Biodistribution in iv dosed ddY mouse spleen measured per gram of tissue after 30 mins by automatic gamma counting; assay type: ADME, organism-based; settings: in vivo, 0.5 h
Heart [11] = test: Biodistribution in iv dosed ddY mouse heart measured per gram of tissue after 60 mins by automatic gamma counting; assay type: ADME, organism-based; settings: in vivo, 1 h
Spleen [12] = test: Biodistribution in iv dosed ddY mouse spleen measured per gram of tissue after 2 mins by automatic gamma counting; assay type: ADME, organism-based; settings: in vivo
Stomach [13] = test: Biodistribution in iv dosed ddY mouse stomach measured per organ after 60 mins by automatic gamma counting; assay type: ADME, organism-based; settings: in vivo, 1 h
Kidney [14] = test: Biodistribution in iv dosed ddY mouse kidney measured per gram of tissue after 10 mins by automatic gamma counting; assay type: ADME, organism-based; settings: in vivo
Spleen [15] = test: Biodistribution in iv dosed ddY mouse spleen measured per gram of tissue after 60 mins by automatic gamma counting; assay type: ADME, organism-based; settings: in vivo, 1 h
Blood [16] = test: Biodistribution in iv dosed ddY mouse blood measured per gram of tissue after 2 mins by automatic gamma counting; assay type: ADME, organism-based; settings: in vivo
Heart [17] = test: Biodistribution in iv dosed ddY mouse heart measured per gram of tissue after 30 mins by automatic gamma counting; assay type: ADME, organism-based; settings: in vivo, 0.5 h
Stomach [18] = test: Biodistribution in iv dosed ddY mouse stomach measured per organ after 10 mins by automatic gamma counting; assay type: ADME, organism-based; settings: in vivo
Liver [19] = test: Biodistribution in iv dosed ddY mouse liver measured per gram of tissue after 10 mins by automatic gamma counting; assay type: ADME, organism-based; settings: in vivo
Blood [20] = test: Biodistribution in iv dosed ddY mouse blood measured per gram of tissue after 60 mins by automatic gamma counting; assay type: ADME, organism-based; settings: in vivo, 1 h
Kidney [21] = test: Biodistribution in iv dosed ddY mouse kidney measured per gram of tissue after 60 mins by automatic gamma counting; assay type: ADME, organism-based; settings: in vivo, 1 h
Kidney [22] = test: Biodistribution in iv dosed ddY mouse kidney measured per gram of tissue after 30 mins by automatic gamma counting; assay type: ADME, organism-based; settings: in vivo, 0.5 h
Pancreas [23] = test: Biodistribution in iv dosed ddY mouse pancreas measured per gram of tissue after 60 mins by automatic gamma counting; assay type: ADME, organism-based; settings: in vivo, 1 h
Heart [24] = test: Biodistribution in iv dosed ddY mouse heart measured per gram of tissue after 10 mins by automatic gamma counting; assay type: ADME, organism-based; settings: in vivo
Intestine [25] = test: Biodistribution in iv dosed ddY mouse intestine measured per gram of tissue after 30 mins by automatic gamma counting; assay type: ADME, organism-based; settings: in vivo, 0.5 h
Brain [26] = test: Biodistribution in iv dosed ddY mouse brain measured per gram of tissue after 30 mins by automatic gamma counting; assay type: ADME, organism-based; settings: in vivo, 0.5 h
Brain [27] = test: Biodistribution in iv dosed ddY mouse brain measured per gram of tissue after 10 mins by automatic gamma counting; assay type: ADME, organism-based; settings: in vivo
Liver [28] = test: Biodistribution in iv dosed ddY mouse liver measured per gram of tissue after 2 mins by automatic gamma counting; assay type: ADME, organism-based; settings: in vivo
Stomach [29] = test: Biodistribution in iv dosed ddY mouse stomach measured per organ after 2 mins by automatic gamma counting; assay type: ADME, organism-based; settings: in vivo
Liver [30] = test: Biodistribution in iv dosed ddY mouse liver measured per gram of tissue after 30 mins by automatic gamma counting; assay type: ADME, organism-based; settings: in vivo, 0.5 h
Brain [31] = test: Biodistribution in iv dosed ddY mouse brain measured per gram of tissue after 2 mins by automatic gamma counting; assay type: ADME, organism-based; settings: in vivo
Kidney [32] = test: Biodistribution in iv dosed ddY mouse kidney measured per gram of tissue after 2 mins by automatic gamma counting; assay type: ADME, organism-based; settings: in vivo
Pancreas [33] = test: Biodistribution in iv dosed ddY mouse pancreas measured per gram of tissue after 30 mins by automatic gamma counting; assay type: ADME, organism-based; settings: in vivo, 0.5 h
Blood [34] = test: Biodistribution in iv dosed ddY mouse blood measured per gram of tissue after 30 mins by automatic gamma counting; assay type: ADME, organism-based; settings: in vivo, 0.5 h
Blood [35] = test: Biodistribution in iv dosed ddY mouse blood measured per gram of tissue after 10 mins by automatic gamma counting; assay type: ADME, organism-based; settings: in vivo
Pancreas [36] = test: Biodistribution in iv dosed ddY mouse pancreas measured per gram of tissue after 2 mins by automatic gamma counting; assay type: ADME, organism-based; settings: in vivo
[37] = biological target: T1, Amyloid-beta precursor protein (Homo sapiens, UniProt P05067); test: In vitro binding affinity to amyloid beta plaques in human AD brain at 148 kBq after 1 hr incubation at room temperature by autoradiography analysis; settings: tested as the 125I-labelled form
T1 sequence (P05067 whole entry): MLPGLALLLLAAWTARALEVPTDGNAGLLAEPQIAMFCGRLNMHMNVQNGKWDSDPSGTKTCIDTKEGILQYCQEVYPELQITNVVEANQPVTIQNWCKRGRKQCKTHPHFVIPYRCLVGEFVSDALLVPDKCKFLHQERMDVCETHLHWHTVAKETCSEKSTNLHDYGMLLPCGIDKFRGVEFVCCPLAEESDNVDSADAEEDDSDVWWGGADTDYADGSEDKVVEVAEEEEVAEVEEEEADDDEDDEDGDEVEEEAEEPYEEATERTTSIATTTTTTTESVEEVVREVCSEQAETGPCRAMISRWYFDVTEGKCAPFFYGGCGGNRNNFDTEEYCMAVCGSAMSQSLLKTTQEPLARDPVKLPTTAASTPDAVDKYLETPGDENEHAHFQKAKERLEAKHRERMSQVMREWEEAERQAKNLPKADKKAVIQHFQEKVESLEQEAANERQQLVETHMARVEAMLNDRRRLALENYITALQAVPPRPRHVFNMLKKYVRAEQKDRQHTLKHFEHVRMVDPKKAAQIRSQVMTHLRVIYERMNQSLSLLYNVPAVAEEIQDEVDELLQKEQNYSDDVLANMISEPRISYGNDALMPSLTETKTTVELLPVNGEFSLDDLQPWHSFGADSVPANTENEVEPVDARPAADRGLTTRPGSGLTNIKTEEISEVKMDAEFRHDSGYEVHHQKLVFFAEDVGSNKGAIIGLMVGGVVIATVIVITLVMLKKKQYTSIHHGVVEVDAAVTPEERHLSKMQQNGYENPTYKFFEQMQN

[38] = Octanol-phosphate buffer partition coefficient, log p of the compound at pH 7.4 by automatic gamma counting; assay type: physicochemical
Mus musculus [39] = test: In vivo binding affinity to amyloid beta plaques in iv dosed wild type mouse brain after 70 mins by autoradiography analysis; assay type: functional, organism-based; settings: tested as the 125I-labelled form
Mus musculus [40] = test: In vivo binding affinity to amyloid beta plaques in iv dosed wild type mouse brain at 44 to 48 MBq after 20 to 80 mins by SPECT study; assay type: functional, organism-based; settings: 44 to 48 M, tested as the 125I-labelled form
Mus musculus [41] = test: In vivo binding affinity to amyloid beta plaques in iv dosed Tg2576 transgenic mouse brain at 44 to 48 MBq after 20 to 80 mins by SPECT study; assay type: functional, organism-based; settings: 44 to 48 M, tested as the 125I-labelled form
[42] = biological target: T1, Amyloid-beta precursor protein; test: Inhibition of [125I]IMPY binding to amyloid beta (1 to 42) aggregates (unknown origin) by gamma counting
Mus musculus [43] = test: In vivo binding affinity to amyloid beta plaques in iv dosed Tg2576 transgenic mouse brain after 70 mins by autoradiography analysis; assay type: functional, organism-based; settings: tested as the 125I-labelled form

SMILES: CN(C)c1ccc(-c2nnc(-c3ccc([125I])cc3)o2)cn1
- Drug uptake (Liver [1]): 2.61 %ID
- Stability (Plasma): Stable
- Drug uptake (Intestine [2]): 1.5 %ID
- Drug uptake (Intestine [3]): 3.38 %ID
- Drug uptake (Pancreas [4]): 3.07 %ID
- Drug uptake (Intestine [5]): 8.57 %ID
- Drug uptake (Brain [6]): 0.4 %ID
- Drug uptake (Spleen [7]): 3.01 %ID
- Drug uptake (Stomach [8]): 7.25 %ID
- Drug uptake (Heart [9]): 4.48 %ID
- Drug uptake (Spleen [10]): 1.72 %ID
- Drug uptake (Heart [11]): 1.13 %ID
- Drug uptake (Spleen [12]): 2.97 %ID
- Drug uptake (Stomach [13]): 10.24 %ID
- Drug uptake (Kidney [14]): 4.61 %ID
- Drug uptake (Spleen [15]): 1.74 %ID
- Drug uptake (Blood [16]): 1.93 %ID
- Drug uptake (Heart [17]): 1.31 %ID
- Drug uptake (Stomach [18]): 2.49 %ID
- Drug uptake (Liver [19]): 7.44 %ID
- Drug uptake (Blood [20]): 1.79 %ID
- Drug uptake (Kidney [21]): 2.99 %ID
- Drug uptake (Kidney [22]): 2.96 %ID
- Drug uptake (Pancreas [23]): 1.27 %ID
- Drug uptake (Heart [24]): 2.15 %ID
- Drug uptake (Intestine [25]): 5.29 %ID
- Drug uptake (Brain [26]): 1.05 %ID
- Drug uptake (Brain [27]): 3.03 %ID
- Drug uptake (Liver [28]): 6.41 %ID
- Drug uptake (Stomach [29]): 0.91 %ID
- Drug uptake (Liver [30]): 3.86 %ID
- Drug uptake (Brain [31]): 3.88 %ID
- Drug uptake (Kidney [32]): 6.43 %ID
- Drug uptake (Pancreas [33]): 1.67 %ID
- Drug uptake (Blood [34]): 1.97 %ID
- Drug uptake (Blood [35]): 2.33 %ID
- Drug uptake (Pancreas [36]): 4.92 %ID

SMILES: CN(C)c1ccc(-c2nnc(-c3cccc(I)c3)o2)cn1
- Activity [37]: Active
- logD [38]: 2.06
- Activity (Mus musculus [39]): inactive
- Activity (Mus musculus [40]): inactive
- Activity (Mus musculus [41]): Active
- Ki [42]: 13.6 nM
- inhibition [42]: Dose-dependent effect
- Activity (Mus musculus [43]): Active

SMILES: CN(C)c1ccc(-c2nnc(-c3ccc(I)cc3)o2)cn1
- Activity [37]: Active
- logD [38]: 2.06
- Activity (Mus musculus [39]): inactive
- Ki [42]: 24.8 nM
- inhibition [42]: Dose-dependent effect
- Activity (Mus musculus [43]): Active

SMILES: CN(C)c1ccc(-c2nnc(-c3cccc([125I])c3)o2)cn1
- Drug uptake (Liver [1]): 5.94 %ID
- Stability (Plasma): Stable
- Drug uptake (Intestine [2]): 2.28 %ID
- Drug uptake (Intestine [3]): 4.08 %ID
- Drug uptake (Pancreas [4]): 2.46 %ID
- Drug uptake (Intestine [5]): 12.08 %ID
- Drug uptake (Brain [6]): 0.48 %ID
- Drug uptake (Spleen [7]): 1.74 %ID
- Drug uptake (Stomach [8]): 5.67 %ID
- Drug uptake (Heart [9]): 5.76 %ID
- Drug uptake (Spleen [10]): 1.39 %ID
- Drug uptake (Heart [11]): 1.14 %ID
- Drug uptake (Spleen [12]): 2.67 %ID
- Drug uptake (Stomach [13]): 7.9 %ID
- Drug uptake (Kidney [14]): 4.59 %ID
- Drug uptake (Spleen [15]): 1.21 %ID
- Drug uptake (Blood [16]): 1.82 %ID
- Drug uptake (Heart [17]): 1.27 %ID
- Drug uptake (Stomach [18]): 2.01 %ID
- Drug uptake (Liver [19]): 11.5 %ID
- Drug uptake (Blood [20]): 1.76 %ID
- Drug uptake (Kidney [21]): 2.3 %ID
- Drug uptake (Kidney [22]): 2.95 %ID
- Drug uptake (Pancreas [23]): 1.28 %ID
- Drug uptake (Heart [24]): 2.39 %ID
- Drug uptake (Intestine [25]): 8.77 %ID
- Drug uptake (Brain [26]): 0.87 %ID
- Drug uptake (Brain [27]): 2.63 %ID
- Drug uptake (Liver [28]): 6.06 %ID
- Drug uptake (Stomach [29]): 0.86 %ID
- Drug uptake (Liver [30]): 8.42 %ID
- Drug uptake (Brain [31]): 4.12 %ID
- Drug uptake (Kidney [32]): 8.85 %ID
- Drug uptake (Pancreas [33]): 1.56 %ID
- Drug uptake (Blood [34]): 1.67 %ID
- Drug uptake (Blood [35]): 1.65 %ID
- Drug uptake (Pancreas [36]): 5.15 %ID

SMILES: CN(C)c1ccc(-c2nnc(-c3ccc(I)cc3)o2)cc1
- Ki [42]: 3.91 nM
